{"source": "patent US20220096515A1", "about": "“Methods and Formulations for Preventing Neurological or Psychiatric Disorders” (Huntington Medical Research Institutes, priority 2020, published 2022)", "type_in_all_cases": "in vivo, mouse", "key": {"[1]": {"system": "Gabrb3^ECKO telencephalon", "assay": "Prenatal NAD+ treatment (E12-E17), histology/IHC of E18 telencephalon", "text": "(§1) Animals: Timed pregnant CD1 mice were purchased from Charles River laboratories, MA. Colonies of GAD65-GFP mice were maintained in our institutional animal facility. Tie2-cre mice and Gabrb3 floxed (Gabrb3^fl/fl) mice were obtained from Jackson Labs. The Tie2-cre transgene is known for uniform expression of cre-recombinase in endothelial cells during embryogenesis and adulthood. To selectively delete Gabrb3 in endothelial cells, Tie2-cre transgenic mice (males) were crossed to Gabrb3^fl/fl mice (females) to generate Tie2-cre; Gabrb3^fl/+ mice (males). These were further crossed with Gabrb3^fl/fl mice (females) to obtain the Gabrb3 conditional knock-outs (Tie2-cre; Gabrb3^fl/fl mice). The day of plug discovery was designated embryonic day 0 (E0). Animal experiments were in full compliance with the NIH Guide for Care and Use of Laboratory Animals and were approved by the HMRI and McLean Institutional Animal Care Committees.\nHistology, immunohistochemistry, and microscopic analysis: Paraffin immunohistochemistry (IHC) was performed on embryonic brains only while frozen section IHC was used on both embryonic and adult brains. Briefly, for paraffin IHC-E18 brains were fixed in zinc fixative (BD Biosciences PharMingen) for 24 h and processed for paraffin histology. Histological stainings with hematoxylin (Vector Laboratories) and eosin (Sigma) were performed on 8 μm coronal sections. Lectin histochemistry (with biotinylated isolectin B4, 1:50, Sigma) as well as IHC was performed on 20 μm sections. Primary antibodies used for IHC were as follows: anti-PHH3 (1:200, Millipore) and anti-NKX2.1, (1:50; Sigma) followed by secondary detection with AlexaFluor conjugates (Invitrogen). DAPI (Vector Laboratories) was used to label nuclei. For frozen section IHC, E18 and P90 brains were removed, fixed in 4% PFA for 24 hours, cryo-protected in sucrose gradient, embedded into OCT medium for frozen blocks; sectioned at 40 μm on a cryostat and immunostained with anti-GABA (1:80, Sigma) and anti -PROX1 (1:80, Millipore) antibodies. Twenty sections from each brain were used for IHC and histology experiments. Uniform penetration of antibodies or stains throughout the section was ascertained and quality of the staining in each digital section was examined. […] All low and high-magnification images were obtained from an FSX100 microscope (Olympus).\nMorphometry: A stereological point grid was superimposed on digital images of biotinylated isolectin-B4+ vessels using ImageJ software. The ratio between points falling on blood vessels and on brain tissue was calculated for each section, and average values were obtained.\nThis vascular deficit in the embryonic telencephalon persisted in the adult cerebral cortex with larger vessel diameters likely correlating with increased perfusion and indicative of functional changes in blood flow in Gabrb3^ECKO vessels. A summary of the embryonic and postnatal phenotype highlights (FIG. 3A) the importance of the endothelial GABA pathway for telencephalic angiogenesis, and for maintaining neuro-vascular interactions. Therefore, given its pro-angiogenic properties (FIGS. 2A-2J), NAD^+ treatment during the prenatal period was tested for its ability to improve angiogenesis in the Gabrb3^ECKO telencephalon. The periventricular ventral-dorsal angiogenesis gradient is established by E11, after which neuronal cells originating from ventricular zones navigate along radial and tangential courses, to adopt final laminar positions and integrate into specific brain circuits. Therefore, the approach was to target only the critical window of mouse prenatal brain development: E12 to E17. In the Gabrb3^ECKO telencephalon, the periventricular vessel gradient is formed normally at E11, but reductions in vascular density and abnormal vascular profiles are observed from E13 onward. […]"}, "Gabrb3^ECKO mice": {"system": "Gabrb3^ECKO mice", "assay": "Self-grooming", "settings": "after prenatal treatment", "method": "Behavioral Experiments: Mice were housed in our animal facility with a 12-hour light cycle with ad libitum access to food and water. Offspring stayed with their mothers until weaning at PND 21 after which males and females were separated. Before all behavioral testing, mice were acclimated to the testing room for 1 hour. Behavioral assays were performed according to established protocols referenced here: self-grooming, light-dark box, tail suspension test, Y-maze, open field locomotion activity, three chamber social interaction test and nest building with nestlets and with shredded paper. Both males and females were used for all behavioral assays. Experimenters scoring behaviors were blinded to the genotypes and treatment. Sample sizes for each assay are noted in figure legends.\nTherefore, behavioral tests were performed to screen for stress, anxiety, locomotion, cognition, and sociability in saline-treated Gabrb3^fl/fl mice, saline-treated Gabrb3^ECKO mice and NAD^+-treated Gabrb3^ECKO mice. Mice from saline and NAD^+-treated groups were housed individually in cages containing wood chip bedding and two nestlets (pressed cotton) (FIGS. 16A-16D) or more naturalistic material like shredded paper strips (FIGS. 16E-16H). […] This rescue of home cage social behavior was a robust indication of well-being in NAD^+-treated Gabrb3^ECKO mice. […]"}, "wildtype CD1 mice": {"system": "wildtype CD1 mice", "assay": "Increasing dose regimen of NAD+ in wildtype CD1 mice, H&E of MGE", "settings": "i.p.", "method": "(§2) Histology, immunohistochemistry, and microscopic analysis: Paraffin immunohistochemistry (IHC) was performed on embryonic brains only while frozen section IHC was used on both embryonic and adult brains. Briefly, for paraffin IHC-E18 brains were fixed in zinc fixative (BD Biosciences PharMingen) for 24 h and processed for paraffin histology. Histological stainings with hematoxylin (Vector Laboratories) and eosin (Sigma) were performed on 8 μm coronal sections. Lectin histochemistry (with biotinylated isolectin B4, 1:50, Sigma) as well as IHC was performed on 20 μm sections. Primary antibodies used for IHC were as follows: anti-PHH3 (1:200, Millipore) and anti-NKX2.1, (1:50; Sigma) followed by secondary detection with AlexaFluor conjugates (Invitrogen). DAPI (Vector Laboratories) was used to label nuclei. For frozen section IHC, E18 and P90 brains were removed, fixed in 4% PFA for 24 hours, cryo-protected in sucrose gradient, embedded into OCT medium for frozen blocks; sectioned at 40 μm on a cryostat and immunostained with anti-GABA (1:80, Sigma) and anti -PROX1 (1:80, Millipore) antibodies. Twenty sections from each brain were used for IHC and histology experiments. Uniform penetration of antibodies or stains throughout the section was ascertained and quality of the staining in each digital section was examined. […]"}, "[2]": {"assay": "Litter size and pup growth after prenatal treatment", "settings": "prenatal NAD^+ treatment"}, "Gabrb3^fl/fl littermates": {"system": "Gabrb3^fl/fl littermates", "assay": "Prenatal NAD+ treatment, H&E of MGE in Gabrb3^fl/fl littermates", "settings": "NAD^+-treated Gabrb3^fl/fl littermates", "method": "as §2"}, "GAD65-GFP knock in mice": {"system": "GAD65-GFP knock in mice", "assay": "E12-E17 NAD+ injection paradigm in GAD65-GFP knock in mice", "settings": "E18, vs NAD^+-untreated group", "text": "as §1\nTo test if the prenatal NAD^+ treatment was able to influence GABAergic neuronal migration, an in vitro neuronal migration assay was performed (FIG. 6M), after the in vivo NAD^+ treatment paradigm (E12-E17). […] This aspect was further explored by using the E12-E17 NAD^+ injection paradigm in GAD65-GFP knock in mice (FIGS. 6P-6T). Images of GFP^+ cells that had entered the dorsal telencephalon at E18 were collected and analyzed. […]"}}, "data": [{"compound": "NC(=O)c1ccc[n+]([C@@H]2O[C@H](COP(=O)([O-])OP(=O)(O)OC[C@H]3O[C@@H](n4cnc5c(N)ncnc54)[C@H](O)[C@@H]3O)[C@@H](O)[C@H]2O)c1", "note": "[NAD^+]", "values": [{"measurement": "periventricular vessel densities", "setting": "[1]; 10 mg in 100 μl saline i.p. daily to pregnant dams E12-E17, E18, vs saline-treated Gabrb3^ECKO", "result": "significant improvement in periventricular vessel densities"}, {"measurement": "NKX2.1 expression in MGE", "setting": "[1]; E18", "result": "significantly enriched in the MGE"}, {"measurement": "PROX1 expression", "setting": "[1]; E18", "result": "significantly increased"}, {"measurement": "number of PHH3^+ cells at VZ/SVZ surface of ventral telencephalon", "setting": "[1]; E18", "result": "significantly increased the number of PHH3^+ cells"}, {"measurement": "profile of GABAergic neurons (GABA immunoreactivity)", "setting": "[1]; E18", "result": "restored"}, {"measurement": "vascular patterns around lateral ventricle / ganglionic eminence", "setting": "[1]; E18, 20 μm sections", "result": "uniform vascular patterns were restored"}, {"measurement": "cell cluster in MGE (H&E)", "setting": "[1]; NAD^+-treated Gabrb3^ECKO mice, E18", "result": "a cluster of cells were observed in the medial ganglionic eminence (MGE)"}, {"measurement": "overall morphology of telencephalon (H&E)", "setting": "[1]; treatment E12 to E17, E18", "result": "significantly improved the overall morphology"}, {"measurement": "severe grooming behavior", "setting": "Gabrb3^ECKO mice", "result": "ameliorated"}, {"measurement": "cell cluster in MGE (H&E)", "setting": "wildtype CD1 mice; 10 mg, 20 mg and 40 mg per mouse", "result": "a similar cell cluster in the MGE"}, {"measurement": "lowest effective dose", "setting": "wildtype CD1 mice", "result": 10, "unit": "mg per mouse"}, {"measurement": "growth of pups", "setting": "[2]", "result": "grew normally to adulthood"}, {"measurement": "litter size", "setting": "[2]", "result": "did not have any effect on litter size"}, {"measurement": "cellular arrangement in MGE (H&E)", "setting": "Gabrb3^fl/fl littermates", "result": "the same distinct cellular arrangement in the MGE"}, {"measurement": "percentage of GFP^+ cells in dorsal telencephalon", "setting": "GAD65-GFP knock in mice", "result": "significant increase in the percentage of GFP^+ cells"}]}]}
